Assay results from patent publication US6391595B1, “Transferase and amylase, process for producing the enzymes, use thereof, and gene coding for the same” (Kirin Beer Kabushiki Kaisha, priority 1994, dated 2002).

Assays:
Type in all cases: biochemical
[1] = test system: amylase derived from the Sulfolobus acidocaldarius strain ATCC 33909; test: Inhibitor of amylase (maltotriosyltrehalose-hydrolyzing activity); settings: 5 mM CuSO4
Description: (§1) The influence of each substance listed in Table 15, such as an activating effect or inhibitory effect, was evaluated using similar activity-measuring method to that in Example II-1. Specifically, the listed substances were individually added together with the substrate to the same reaction system as that in the method for measuring maltotriosyltrehalose-hydrolyzing activity employed in Example II-1. […] As to the inhibitory effect by SDS, however, the enzymatic activity revived after SDS was removed by dialysis, ultrafiltration or the like.
(§2) Additionally, each of the purified enzymes obtained in Examples II-3 and II-4, i.e. derived from the Sulfolobus solfataricus strain DSM 5833 and the Sulfolobus acidocaldarius strain ATCC 33909, respectively, was also examined for the enzymatic characteristics in a similar manner.

[2] = test system: amylase derived from the Sulfolobus solfataricus strain DSM 5833; test: as above; settings: 5 mM CuSO4
Description: as §1, §2

[3] = test system: transferase derived from the Sulfolobus solfataricus strain DSM 5833; test: Inhibitor of transferase (glucosyltrehalose-producing activity); settings: 5 mM CuSO4
Description: (§3) The influence of each substance listed in Table 8, such as an activating effect or inhibitory effect, was evaluated using similar activity-measuring method to that in Example I-1. Specifically, the listed substances were individually added together with the substrate to the same reaction system as that in the method for measuring glucosyltrehalose-producing activity employed in Example I-1.
(§4) Incidentally, each of the purified enzymes which were obtained in Examples I-3-I-5 and derived from the Sulfolobus solfataricus strain DSM 5833, the Sulfolobus acidocaldarius strain ATCC 33909, and the Acidianus brierleyi strain DSM 1651, respectively, was examined for enzymatic characteristics by using similar manner.

[4] = test system: transferase derived from the Sulfolobus acidocaldarius strain ATCC 33909; test: as above; settings: 5 mM CuSO4
Description: as §3, §4

[5] = test system: transferase derived from the Acidianus brierleyi strain DSM 1651; test: as above; settings: 5 mM CuSO4
Description: as §3, §4

[6] = test system: debranching enzyme derived from the Sulfolobus solfataricus strain KM1; test: Influence of activators and inhibitors on debranching enzyme activity
[7] = test system: transferase derived from the Sulfolobus solfataricus strain KM1; test: Influence of activators and inhibitors on glucosyltrehalose-producing activity
[8] = target: T1, amylase derived from the Sulfolobus solfataricus strain KM1 (Saccharolobus solfataricus, UniProt Q55088); test: biochemical
T1 construct: endogenous in cells; host or cells: Sulfolobus solfataricus strain KM1 cells
T1 sequence (Q55088 1-559): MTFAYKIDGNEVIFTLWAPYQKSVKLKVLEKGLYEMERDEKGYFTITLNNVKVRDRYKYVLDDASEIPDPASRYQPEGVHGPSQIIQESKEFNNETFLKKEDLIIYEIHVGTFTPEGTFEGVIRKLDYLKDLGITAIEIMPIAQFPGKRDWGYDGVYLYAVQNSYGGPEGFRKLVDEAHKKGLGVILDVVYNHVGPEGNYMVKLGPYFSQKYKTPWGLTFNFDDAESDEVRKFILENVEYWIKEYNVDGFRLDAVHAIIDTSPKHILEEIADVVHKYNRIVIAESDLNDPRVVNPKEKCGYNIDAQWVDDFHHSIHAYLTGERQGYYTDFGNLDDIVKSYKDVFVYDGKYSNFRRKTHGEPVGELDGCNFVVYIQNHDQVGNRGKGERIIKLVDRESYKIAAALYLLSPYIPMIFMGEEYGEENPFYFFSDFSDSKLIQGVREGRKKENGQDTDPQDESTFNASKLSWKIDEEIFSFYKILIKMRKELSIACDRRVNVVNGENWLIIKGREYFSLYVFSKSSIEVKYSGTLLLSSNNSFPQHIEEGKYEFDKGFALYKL

O=S(=O)([O-])[O-].[Cu+2] [CuSO4]
0%: Residual activity ([8]; Concentration 5 mM)
0.0%: Residual activity ([6]; Concentration 5 mM) | Residual activity ([7]; Concentration 5 mM)
100% inhibited: Inhibitor, inhibited [1] | Inhibitor, inhibited [2] | Inhibitor, inhibited [3] | Inhibitor, inhibited [4] | Inhibitor, inhibited [5] | Inhibitor, inhibited ([7]; 5 mM CuSO4) | Inhibitor, inhibited ([8]; 5 mM CuSO4)
inhibitory effects: Activating or inhibitory effect ([6]; added with the substrate) | Activating or inhibitory effect ([7]; added with the substrate) | Activating or inhibitory effect ([8]; added with the substrate)
